Laboratory results from ChEMBL document CHEMBL1201862, “PubChem BioAssay data set” (2004).
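Where inhibition never reached the appropriate level, the endpoint shown equals the highest concentration tested. Otherwise, values were interpolated linearly from a five-concentration, 48-hour dose response in 96-well plates. GI50 marks 50% less growth.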 Calls of active or inactive are those of the source. Cut-off read from the data, not from the text of the source: active = GI50 up to about 1.1 µM and inactive = higher.

Legend:
Test in all cases: NCI tumour cell line growth inhibition, 48 h
A498 = test system: A498
KM12 = test system: KM12
NCI-H23 = test system: NCI-H23
IGROV-1 = test system: IGROV-1
NCI-H226 = test system: NCI-H226
NCI-H460 = test system: NCI-H460
MDA-MB-435 = test system: MDA-MB-435
LOX IMVI = test system: LOX IMVI
UO-31 = test system: UO-31
HCT-116 = test system: HCT-116
SW-620 = test system: SW-620
NCI-H522 = test system: NCI-H522
PC-3 = test system: PC-3
BT-549 = test system: BT-549
MDA-N = test system: MDA-N
SN12C = test system: SN12C
SF-295 = test system: SF-295
HOP-62 = test system: HOP-62
MOLT-4 = test system: MOLT-4
UACC-257 = test system: UACC-257
OVCAR-4 = test system: OVCAR-4
HOP-92 = test system: HOP-92
A549 = test system: A549
HCC 2998 = test system: HCC 2998
CAKI-1 = test system: CAKI-1
OVCAR-8 = test system: OVCAR-8
SR = test system: SR
SF-539 = test system: SF-539
EKVX = test system: EKVX
MDA-MB-231 = test system: MDA-MB-231
Hs-578T = test system: Hs-578T
SF-268 = test system: SF-268
HCT-15 = test system: HCT-15
OVCAR-3 = test system: OVCAR-3
T47D = test system: T47D
UACC-62 = test system: UACC-62
MCF7 = test system: MCF7
ACHN = test system: ACHN
OVCAR-5 = test system: OVCAR-5
SK-MEL-5 = test system: SK-MEL-5
COLO 205 = test system: COLO 205
M14 = test system: M14
SNB-75 = test system: SNB-75
786-0 = test system: 786-0
SNB-19 = test system: SNB-19
NCI/ADR-RES = test system: NCI/ADR-RES
HT-29 = test system: HT-29
SK-MEL-28 = test system: SK-MEL-28
SK-MEL-2 = test system: SK-MEL-2
TK-10 = test system: TK-10
DU-145 = test system: DU-145
U-251 = test system: U-251
SK-OV-3 = test system: SK-OV-3

Measured: GI50

Cc1c2c(n(Cc3ccccn3)c1C)NN=C(C#N)S2(=O)=O
> 100 µM: HCT-15
inactive: A498 > 100 µM | KM12 > 100 µM | NCI-H23 > 100 µM | IGROV-1 > 100 µM | NCI-H226 > 100 µM | NCI-H460 > 100 µM | MDA-MB-435 > 100 µM | LOX IMVI > 100 µM | UO-31 > 100 µM | HCT-116 > 100 µM | SW-620 > 100 µM | NCI-H522 > 100 µM | PC-3 > 100 µM | BT-549 > 100 µM | MDA-N > 100 µM | SN12C > 100 µM | SF-295 > 100 µM | HOP-62 > 100 µM | MOLT-4 > 100 µM | UACC-257 > 100 µM | OVCAR-4 > 100 µM | HOP-92 > 100 µM | A549 > 100 µM | HCC 2998 > 100 µM | CAKI-1 > 100 µM | OVCAR-8 > 100 µM | SR > 100 µM | SF-539 > 100 µM | EKVX > 100 µM | MDA-MB-231 > 100 µM | Hs-578T > 100 µM | SF-268 > 100 µM | OVCAR-3 > 100 µM | T47D > 100 µM | UACC-62 > 100 µM | MCF7 > 100 µM | ACHN > 100 µM | OVCAR-5 > 100 µM | SK-MEL-5 > 100 µM | COLO 205 > 100 µM | M14 > 100 µM | SNB-75 > 100 µM | 786-0 > 100 µM | SNB-19 > 100 µM | NCI/ADR-RES > 100 µM | HT-29 > 100 µM | SK-MEL-28 > 100 µM | SK-MEL-2 > 100 µM | TK-10 > 100 µM | DU-145 > 100 µM | U-251 > 100 µM | SK-OV-3 > 100 µM
